Literature values as cited in patent publication US12377109B2, “Formulation and noncovalent stabilization of olivetolic acid derivatives” (MINGOWOOD PHARMACAL LLC, priority 2020, dated 2025).
Read-outs that look alike come from different tables or passages of the source.

Tests used:
[1] = system: lithium chloride- and cisplatin-induced vomiting; settings: mice and shrews
[2] = system: MDA-MB-231 human breast cancer cells; settings: MDA-MB-231 cells
[3] = for first-order rate constant k for decarboxylation: 100° C.
[4] = 30° C., neat substances and solutions, reviewed studies
[5] = 40° C., neat substances and solutions, reviewed studies

Structure (SMILES)	pKa	lowest dose suppressing vomiting [1] [mg/kg]	effect on cell migration [2]	time to 10% degradation ([3]; 25° C., extrapolated from Wang's data)	half-life ([3]; 30° C., calculated from Citti et al.) [weeks]	half-life ([3]; 30° C., calculated from Wang et al.) [weeks]	half-life ([3]; 30° C., estimated for the Cerilliant product)	half-life [3, 4]	decrease in potency ([3]; 40° C. over 4 weeks, Cerilliant standard solution in acetonitrile) [%]	half-life ([3]; 40° C., from Wang et al. parameters) [weeks]	half-life [3, 5]	decay constant ([3]; 80° C., Wang et al.) [s⁻¹]	half-life ([3]; 80° C., Wang's estimate) [h]	half-life ([3]; 80° C., in hemp oil as extracted, Citti et al.)	first-order rate constant k for decarboxylation [3]	activation energy of degradation ([3]; Wang et al.) [kcal/mol]	prefactor in the expression for the degradation rate constant ([3]; Wang et al.) [s⁻¹]	activation energy of degradation ([3]; in hemp oil, Citti et al.) [kcal/mol]	prefactor ([3]; in hemp oil, Citti et al.) [L/s]	loss ([3]; 40% and 90% ethanol tinctures, 4° C., dark, 6 months, Peschel)
C=C(C)C1CCC(C)=CC1c1c(O)cc(CCCCC)c(C(=O)O)c1O (stereo not drawn) [CBDA, 3-p-mentha-1,8-dien-3-yl-6-pentyl-beta-resorcylic acid]	3.4	0.01	inhibits migration	approximately 3.7 weeks	4.5	11.6	about 12 weeks	about 12 weeks	69.8	4.06	about 4 weeks	5.35e-05	3.6	approximately 4.9 hours	4.13×10^−4	27.5	2e+12	21.4	6.9e+08	–
CCCCCc1cc(O)c(C/C=C(\C)CCC=C(C)C)c(O)c1C(=O)O [CBGA, 3-[(2E)-3,7-dimethylocta-2,6-dienyl]-2,4-dihydroxy-6-pentylbenzoic acid]	2.9	–	–	–	–	–	–	–	–	–	–	–	–	–	–	–	–	–	–	–
CCCCCc1cc2c(c(O)c1C(=O)O)[C@@H]1C=C(C)CC[C@H]1C(C)(C)O2 [THCA, (6aR,10aR)-1-hydroxy-6,6,9-trimethyl-3-pentyl-6a,7,8,10a-tetrahydrobenzo[c]chromene-2-carboxylic acid]	–	–	–	–	–	–	–	about 12 weeks	–	–	about 4 weeks	–	–	–	4.93×10^−4	–	–	–	–	over 50%
